{
  "source": "patent US8877244B2",
  "about": "“Stabilized pesticidal granules” (priority 2006, dated 2014)",
  "key": {"[1]": {"experiment": "Stability comparison: accelerated temperature storage of coated granules, a.i. extracted and assayed by HPLC", "format": "physicochemical", "conditions": "storage at 38° C. and 50° C.", "experimental": "The materials prepared in examples 1-7 are tested for stability as follows: • 1) After obtaining the coated granules according to the procedures given above, material is divided up into samples by using a standard “Riffler”, which is used to generate statistically representative samples from a large batch. • 2) The individual “riffled” samples are put on accelerated temperature storage (in ovens) at 38° C. and 50° C. • 3) Samples are pulled from each temperature at regular intervals, and assayed for 2-(2′-nitro-4′-methylsulphonylbenzoyl)-1,3-cyclohexanedione acid concentration (weight %). Commonly 2-3 samples are pulled from each temperature, each week. • 4) The pulled samples are analyzed for stability by extraction of the a.i. material from the granules and assayed by HPLC."}, "[2]": {"system": "large crabgrass (Digitaria sanguinalis)", "experiment": "Biology comparison: control of large crabgrass by stored granule samples", "format": "in vivo", "conditions": "after storage for 1 year at room temperature or 19 days at 50° C.", "text": "Callisto® (a commercially available liquid formulation containing 4 lbs/gal of the active ingredient 2-(2′-nitro-4′-methylsulphonylbenzoyl)-1,3-cyclohexanedione acid) (Syngenta Crop Protection, Inc.) is sprayed onto fertilizer granules (Scotts® Turf Builder® Lawn Fertilizer 29-3-4 (with added nutrients)) (The Scotts Co.) in an amount sufficient to achieve an average a.i. loading of 0.082% by weight. Sample 2 is a control sample that is freshly prepared and has not been stored. Sample 3 is stored for 1 year at ambient room temperature. Sample 4 is stored under accelerated conditions (19 days at 50° C.).\nA spray solution of Example 1 is sprayed onto fertilizer granules (Scotts® Turf Builder® Lawn Fertilizer 29-3-4 (with added nutrients)) (The Scotts Co.) in an amount sufficient to achieve an average a.i. loading of 0.082% by weight. Sample 5 is stored for 1 year at ambient room temperature. Sample 6 is stored under accelerated conditions (19 days at 50° C.).\nAll samples are applied to large crabgrass (Digitaria sanguinalis) at 224 g ai/ha, and control assessed 10 days after treatment. Sample 1 is an untreated control."}},
  "data": [
    {"substance": "2-(2′-nitro-4′-methylsulphonylbenzoyl)-1,3-cyclohexanedione copper chelate", "values": [
      {"measurement": "stability on granules compared with the unchelated (acid) form", "setting": "[1]", "value": "improved stability"},
      {"measurement": "control of large crabgrass compared with the unchelated (acid) form on fertiliser granules", "setting": "[2]", "value": "improved control of large crabgrass"}
    ]}
  ]
}
